In brackets after ≈: the same amount, converted by molar mass. Activity calls are given as the source filed them. The calls are words filed in the database; no cut-off is given here.
Legend:
Botrytis cinerea [1] = test: Antifungal activity against Botryotinia fuckeliana SAS56 assessed as inhibition of colony growth; assay type: functional, organism-based
Botrytis cinerea [2] = test: Resistance index, ratio of EC50 for QoI fungicide-resistant Botryotinia fuckeliana lab isolates to EC50 for Botryotinia fuckeliana SAS56; assay type: functional
Botrytis cinerea [3] = test: Resistance index, ratio of EC50 for QoI fungicide-resistant Botryotinia fuckeliana field isolates expressing cytb G143A mutant gene to EC50 for Botryotinia fuckeliana SAS405; assay type: functional
Botrytis cinerea [4] = test: Antifungal activity against Botryotinia fuckeliana SAS405 assessed as inhibition of colony growth; assay type: functional, organism-based
Botrytis cinerea [5] = test: Antifungal activity against Botryotinia fuckeliana SAS56 assessed as complete inhibition of colony growth at […]; assay type: functional, organism-based
Botrytis cinerea [6] = test: Antifungal activity against QoI fungicide-resistant Botryotinia fuckeliana field isolates expressing cytb G143A mutant gene assessed as inhibition of colony growth; assay type: functional, organism-based
Botrytis cinerea [7] = test: Resistance index, ratio of EC50 for QoI fungicide-resistant Botryotinia fuckeliana lab isolates to EC50 for Botryotinia fuckeliana SAS405; assay type: functional
Botrytis cinerea [8] = test: Antifungal activity against QoI fungicide-resistant Botryotinia fuckeliana lab isolates assessed as inhibition of colony growth; assay type: functional, organism-based
Botrytis cinerea [9] = test: Resistance index, ratio of EC50 for QoI fungicide-resistant Botryotinia fuckeliana field isolates expressing cytb G143A mutant gene to EC50 for Botryotinia fuckeliana SAS56; assay type: functional
Botrytis cinerea [10] = test: Antifungal activity against Botryotinia fuckeliana SAS56 assessed as complete inhibition of colony growth at 3 mg/ml; assay type: functional, organism-based

`CO/N=C(\C(=O)OC)c1ccccc1CO/N=C(\C)c1cccc(C(F)(F)F)c1` was tested, and the EC50 (Botrytis cinerea [1]) was < 0.01 µg/mL, the MIC (Botrytis cinerea [1]) was 1 µg/mL (≈ 2.45 µM) and the “Ratio EC50” value (Botrytis cinerea [2]) was >1000. The “Ratio EC50” value (Botrytis cinerea [3]) was >1000, the EC50 (Botrytis cinerea [4]) was 0.01 µg/mL (≈ 0.0245 µM) and the MIC (Botrytis cinerea [4]) was 1 µg/mL (≈ 2.45 µM). For the same compound, the “growth inhibition (GI)” value (Botrytis cinerea [5]) was “Active”, the EC50 (Botrytis cinerea [6]) was > 100 µg/mL and the “Ratio EC50” value (Botrytis cinerea [7]) was >1000. The EC50 (Botrytis cinerea [8]) was > 100 µg/mL and the “Ratio EC50” value (Botrytis cinerea [9]) was >1000.

`CO/N=C(/C(=O)OC)c1ccccc1COc1ccccc1C` [KRESOXIM-METHYL] was tested, and the EC50 (Botrytis cinerea [1]) was 0.01 µg/mL (≈ 0.0319 µM), the EC50 (Botrytis cinerea [4]) was 0.01 µg/mL (≈ 0.0319 µM) and the “growth inhibition (GI)” value (Botrytis cinerea [10]) was “Active”.

`CO/C=C(/C(=O)OC)c1ccccc1Oc1cc(Oc2ccccc2C#N)ncn1` [AZOXYSTROBIN] was tested, and the EC50 (Botrytis cinerea [1]) was 0.1 µg/mL (≈ 0.248 µM), the EC50 (Botrytis cinerea [4]) was 0.1 µg/mL (≈ 0.248 µM) and the “growth inhibition (GI)” value (Botrytis cinerea [10]) was “Active”.
